Data as given in PMC5218480 (PLoS ONE, 2017).

Tested on: MV-4-11 cells
Assay: Gene expression microarray analysis (Affymetrix PrimeView) and GSEA
Format: cell-based, human
Parameters: RFU PODN (11730768_x_at) / Fold change /veh PODN (11730768_x_at) / RFU LINC00158 (11744669_a_at) / Fold change /veh LINC00158 (11744669_a_at) / RFU DUSP10 (11751237_a_at) / Fold change /veh DUSP10 (11751237_a_at) / RFU ID3 (11757404_x_at) / Fold change /veh ID3 (11757404_x_at) / RFU PLEKHG5 (11737974_s_at) / Fold change /veh PLEKHG5 (11737974_s_at) / RFU LRRC4B (11730491_at) / Fold change /veh LRRC4B (11730491_at) / RFU GIMAP4 (11747438_a_at) / Fold change /veh GIMAP4 (11747438_a_at) / RFU KRT8 (11758183_x_at) / Fold change /veh KRT8 (11758183_x_at) / RFU CNN1 (11734310_a_at) / Fold change /veh CNN1 (11734310_a_at) / RFU VPS37D (11726825_at) / Fold change /veh VPS37D (11726825_at) / RFU C10orf10 (11716522_x_at) / Fold change /veh C10orf10 (11716522_x_at) / RFU KIR2DL2 /// KIR2DL4 /// KIR2DL5A /// KIR2DL5B /// KIR2DS1 /// KIR2DS2 /// KIR2DS3 /// KIR2DS4 /// KIR3DL3 /// KIR3DL3 /// KIR3DS1 (11738374_at) / Fold change /veh KIR2DL2 /// KIR2DL4 /// KIR2DL5A /// KIR2DL5B /// KIR2DS1 /// KIR2DS2 /// KIR2DS3 /// KIR2DS4 /// KIR3DL3 /// KIR3DL3 /// KIR3DS1 (11738374_at) / RFU C1QL1 (11718748_at) / Fold change /veh C1QL1 (11718748_at) / RFU TMPRSS4 (11747572_a_at) / Fold change /veh TMPRSS4 (11747572_a_at) / RFU HAMP (11756126_x_at) / Fold change /veh HAMP (11756126_x_at) / RFU RNFT2 (11725882_a_at) / Fold change /veh RNFT2 (11725882_a_at) / RFU NR4A2 (11747474_a_at) / Fold change /veh NR4A2 (11747474_a_at) / RFU ABCC12 (11746883_a_at) / Fold change /veh ABCC12 (11746883_a_at) / RFU TMEM136 (11760407_x_at) / Fold change /veh TMEM136 (11760407_x_at) / RFU CLDN22 /// WWC2 (11732394_at) / Fold change /veh CLDN22 /// WWC2 (11732394_at) / RFU HLA-DPB1 (11760878_x_at) / Fold change /veh HLA-DPB1 (11760878_x_at) / RFU SPINT1 (11716480_a_at) / Fold change /veh SPINT1 (11716480_a_at) / RFU GAP43 (11754022_s_at) / Fold change /veh GAP43 (11754022_s_at) / RFU A4GNT (11735810_at) / Fold change /veh A4GNT (11735810_at) / RFU PRB3 (11715151_x_at) / Fold change /veh PRB3 (11715151_x_at) / RFU TUBB4B (11761932_at) / Fold change /veh TUBB4B (11761932_at) / RFU CAPN14 (11732068_a_at) / Fold change /veh CAPN14 (11732068_a_at) / RFU TMCC2 (11721928_a_at) / Fold change /veh TMCC2 (11721928_a_at) / RFU IRGQ (11745062_a_at) / Fold change /veh IRGQ (11745062_a_at) / RFU FAM174B (11720279_a_at) / Fold change /veh FAM174B (11720279_a_at) / RFU TMPRSS4 (11748680_a_at) / Fold change /veh TMPRSS4 (11748680_a_at) / RFU FAM212B (11763350_a_at) / Fold change /veh FAM212B (11763350_a_at) / RFU PLEKHG5 (11743358_a_at) / Fold change /veh PLEKHG5 (11743358_a_at) / RFU ZSCAN30 (11745921_a_at) / Fold change /veh ZSCAN30 (11745921_a_at) / RFU CMKLR1 (11741424_a_at) / Fold change /veh CMKLR1 (11741424_a_at) / RFU LOC101060620 /// MAPK8IP1 (11723275_at) / Fold change /veh LOC101060620 /// MAPK8IP1 (11723275_at) / RFU SPTSSB (11747773_x_at) / Fold change /veh SPTSSB (11747773_x_at) / RFU PRSS12 (11739890_at) / Fold change /veh PRSS12 (11739890_at) / RFU BIN1 (11741810_x_at) / Fold change /veh BIN1 (11741810_x_at) / RFU WNT11 (11732464_a_at) / Fold change /veh WNT11 (11732464_a_at) / RFU C10orf10 (11716521_a_at) / Fold change /veh C10orf10 (11716521_a_at) / RFU C5orf56 (11738089_at) / Fold change /veh C5orf56 (11738089_at) / RFU CYB561 (11721691_x_at) / Fold change /veh CYB561 (11721691_x_at) / RFU ANKRD19P (11752326_a_at) / Fold change /veh ANKRD19P (11752326_a_at) / RFU OR2T12 /// OR2T33 /// OR2T8 (11738714_s_at) / Fold change /veh OR2T12 /// OR2T33 /// OR2T8 (11738714_s_at) / RFU VCAN (11748164_a_at) / Fold change /veh VCAN (11748164_a_at) / RFU JSRP1 (11732532_at) / Fold change /veh JSRP1 (11732532_at) / RFU KRTAP10-11 (11738290_x_at) / Fold change /veh KRTAP10-11 (11738290_x_at) / RFU MYO3A (11730013_a_at) / Fold change /veh MYO3A (11730013_a_at) / RFU EBF3 (11725865_a_at) / Fold change /veh EBF3 (11725865_a_at) / RFU CAMK2N1 (11719241_x_at) / Fold change /veh CAMK2N1 (11719241_x_at) / RFU C5orf56 (11738088_a_at) / Fold change /veh C5orf56 (11738088_a_at) / RFU OLFML3 (11715873_a_at) / Fold change /veh OLFML3 (11715873_a_at) / RFU LOC100653217 /// NTM (11731650_a_at) / Fold change /veh LOC100653217 /// NTM (11731650_a_at) / RFU MAPK11 (11762145_a_at) / Fold change /veh MAPK11 (11762145_a_at) / RFU FIZ1 (11724087_x_at) / Fold change /veh FIZ1 (11724087_x_at) / RFU OASL (11726364_x_at) / Fold change /veh OASL (11726364_x_at) / RFU SOX15 (11748057_x_at) / Fold change /veh SOX15 (11748057_x_at) / RFU CD79A (11719716_a_at) / Fold change /veh CD79A (11719716_a_at) / RFU HIST1H1D (11736915_at) / Fold change /veh HIST1H1D (11736915_at) / RFU CASKIN2 (11723855_a_at) / Fold change /veh CASKIN2 (11723855_a_at) / RFU LOC730098 (11760151_x_at) / Fold change /veh LOC730098 (11760151_x_at) / RFU OR4N2 (11742367_at) / Fold change /veh OR4N2 (11742367_at) / RFU PRRT2 (11749266_a_at) / Fold change /veh PRRT2 (11749266_a_at) / RFU SNX32 (11753110_a_at) / Fold change /veh SNX32 (11753110_a_at) / RFU CDHR5 (11726645_a_at) / Fold change /veh CDHR5 (11726645_a_at) / RFU RCAN1 (11760418_a_at) / Fold change /veh RCAN1 (11760418_a_at) / RFU FAM167A (11723789_a_at) / Fold change /veh FAM167A (11723789_a_at) / RFU FAM26E (11764081_at) / Fold change /veh FAM26E (11764081_at) / RFU ISYNA1 (11749810_s_at) / Fold change /veh ISYNA1 (11749810_s_at) / RFU ACY1 (11761880_at) / Fold change /veh ACY1 (11761880_at) / RFU 11764098_at / Fold change /veh 11764098_at / RFU SAMD14 (11745864_x_at) / Fold change /veh SAMD14 (11745864_x_at) / RFU NPB (11741838_a_at) / Fold change /veh NPB (11741838_a_at) / RFU TMPRSS6 (11731388_a_at) / Fold change /veh TMPRSS6 (11731388_a_at) / RFU KRTAP10-2 (11738614_at) / Fold change /veh KRTAP10-2 (11738614_at) / RFU ARHGAP8 /// PRR5-ARHGAP8 (11727945_x_at) / Fold change /veh ARHGAP8 /// PRR5-ARHGAP8 (11727945_x_at) / RFU KRTAP5-7 /// NADSYN1 (11734609_at) / Fold change /veh KRTAP5-7 /// NADSYN1 (11734609_at) / RFU RASL12 (11751679_a_at) / Fold change /veh RASL12 (11751679_a_at) / RFU CDKN2B (11736163_a_at) / Fold change /veh CDKN2B (11736163_a_at) / RFU PRF1 (11729649_at) / Fold change /veh PRF1 (11729649_at) / RFU, ZNF638 /// ZNF638-IT1 / Fold change vs veh, ZNF638 /// ZNF638-IT1 / RFU, PANK3 / Fold change vs veh, PANK3 / RFU, SH3YL1 / Fold change vs veh, SH3YL1 / RFU, ZEB2 / Fold change vs veh, ZEB2 / RFU, NRIP1 / Fold change vs veh, NRIP1 / RFU, PTTG1IP / Fold change vs veh, PTTG1IP / RFU, CAPN2 / Fold change vs veh, CAPN2 / RFU, MED14 / Fold change vs veh, MED14 / RFU, SNORA58 / Fold change vs veh, SNORA58 / RFU, C1orf63 / Fold change vs veh, C1orf63 / RFU, LRRFIP1 / Fold change vs veh, LRRFIP1 / RFU, NDUFAF7 / Fold change vs veh, NDUFAF7 / RFU, SLC12A2 / Fold change vs veh, SLC12A2 / RFU, IBTK / Fold change vs veh, IBTK / RFU, ESF1 / Fold change vs veh, ESF1 / Fold change vs veh, TMEM50B / RFU, TAOK1 / Fold change vs veh, TAOK1 / RFU, ACBD3 / Fold change vs veh, ACBD3 / RFU, TMA16 / Fold change vs veh, TMA16 / RFU, RWDD3 / Fold change vs veh, RWDD3 / RFU, BCAT1 / Fold change vs veh, BCAT1 / RFU, EDEM3 / Fold change vs veh, EDEM3 / RFU, TMEM33 / Fold change vs veh, TMEM33 / RFU, WDR75 / Fold change vs veh, WDR75 / RFU, AHCTF1 / Fold change vs veh, AHCTF1 / RFU, TFRC / Fold change vs veh, TFRC / RFU, ZDHHC17 / Fold change vs veh, ZDHHC17 / RFU, NOM1 / Fold change vs veh, NOM1 / RFU, ARL8B / Fold change vs veh, ARL8B / RFU, ZBTB11 / Fold change vs veh, ZBTB11 / RFU, TAMM41 / Fold change vs veh, TAMM41 / RFU, KIAA1704 /// LOC100996395 / Fold change vs veh, KIAA1704 /// LOC100996395 / RFU, ING1 / Fold change vs veh, ING1 / RFU, TRMT61B / Fold change vs veh, TRMT61B / RFU, FUBP3 / Fold change vs veh, FUBP3 / RFU, TP53 / Fold change vs veh, TP53 / RFU, TNKS2 / Fold change vs veh, TNKS2 / RFU, ZFP14 / Fold change vs veh, ZFP14 / RFU, ACTR2 / Fold change vs veh, ACTR2 / RFU, PPP3R1 / Fold change vs veh, PPP3R1 / RFU, PIK3R1 / Fold change vs veh, PIK3R1 / RFU, HNRNPA1 / Fold change vs veh, HNRNPA1 / RFU, RNF170 / Fold change vs veh, RNF170 / RFU, ZNF28 / Fold change vs veh, ZNF28 / RFU, RNGTT / Fold change vs veh, RNGTT / RFU, OGT / Fold change vs veh, OGT / RFU, BRD1 / Fold change vs veh, BRD1 / RFU, MARS / Fold change vs veh, MARS / RFU, ZNF655 / Fold change vs veh, ZNF655 / RFU, FAHD1 / Fold change vs veh, FAHD1 / RFU, BDP1 / Fold change vs veh, BDP1 / RFU, LRRCC1 / Fold change vs veh, LRRCC1 / RFU, ARID1A / Fold change vs veh, ARID1A / RFU, ZNF146 / Fold change vs veh, ZNF146 / RFU, ZNF330 / Fold change vs veh, ZNF330 / RFU, GPN3 / Fold change vs veh, GPN3 / RFU, C9orf123 / Fold change vs veh, C9orf123 / RFU, N4BP2L2 / Fold change vs veh, N4BP2L2 / RFU, ARFIP1 / Fold change vs veh, ARFIP1 / RFU, FAM179B / Fold change vs veh, FAM179B / RFU, BCL10 / Fold change vs veh, BCL10 / RFU, UHRF1BP1L / Fold change vs veh, UHRF1BP1L / RFU, BET1 / Fold change vs veh, BET1 / RFU, CNOT2 / Fold change vs veh, CNOT2 / RFU, ZNF268 / Fold change vs veh, ZNF268 / Fold change vs veh, ZNF507 / RFU, DGCR2 / Fold change vs veh, DGCR2 / RFU, WDSUB1 / Fold change vs veh, WDSUB1 / Fold change vs veh, HSP90B1 /// MIR3652 / RFU, ADSS / Fold change vs veh, ADSS / RFU, GK / Fold change vs veh, GK / RFU, ZNF148 / Fold change vs veh, ZNF148 / RFU, TAF9 / Fold change vs veh, TAF9 / RFU, SLC1A5 / Fold change vs veh, SLC1A5 / RFU, SLMO2 / Fold change vs veh, SLMO2 / RFU, ABCC4 / Fold change vs veh, ABCC4 / RFU, LOC101060439 /// RAP1B / Fold change vs veh, LOC101060439 /// RAP1B / RFU, RFX7 / Fold change vs veh, RFX7 / RFU, GTPBP10 / Fold change vs veh, GTPBP10 / RFU, CNEP1R1 / Fold change vs veh, CNEP1R1 / RFU, BIVM-ERCC5 /// ERCC5 / Fold change vs veh, BIVM-ERCC5 /// ERCC5 / RFU, ILF3 / Fold change vs veh, ILF3 / RFU 11762660_at / Fold change /veh 11762660_at / RFU VCAN (11757783_s_at) / Fold change /veh VCAN (11757783_s_at) / RFU DDX43 (11728927_at) / Fold change /veh DDX43 (11728927_at) / RFU KRT8 (11758188_x_at) / Fold change /veh KRT8 (11758188_x_at) / RFU NKD1 (11759106_at) / Fold change /veh NKD1 (11759106_at) / RFU SRD5A1 (11742802_a_at) / Fold change /veh SRD5A1 (11742802_a_at) / RFU TPSAB1 /// TPSB2 (11721975_s_at) / Fold change /veh TPSAB1 /// TPSB2 (11721975_s_at) / RFU GSTM3 (11746129_a_at) / Fold change /veh GSTM3 (11746129_a_at) / RFU IL23R (11737362_x_at) / Fold change /veh IL23R (11737362_x_at) / RFU TMEM51 (11727254_a_at) / Fold change /veh TMEM51 (11727254_a_at) / RFU PIWIL2 (11732686_x_at) / Fold change /veh PIWIL2 (11732686_x_at) / RFU ORM1 (11744905_x_at) / Fold change /veh ORM1 (11744905_x_at) / RFU CCDC152 (11743942_at) / Fold change /veh CCDC152 (11743942_at) / RFU ECM1 (11717891_a_at) / Fold change /veh ECM1 (11717891_a_at) / RFU IL23R (11748794_a_at) / Fold change /veh IL23R (11748794_a_at) / RFU TNFAIP8L3 (11732012_x_at) / Fold change /veh TNFAIP8L3 (11732012_x_at) / RFU MBOAT4 (11741988_at) / Fold change /veh MBOAT4 (11741988_at) / RFU 11764193_at / Fold change /veh 11764193_at / RFU TMEM53 (11763286_at) / Fold change /veh TMEM53 (11763286_at) / RFU MAGEB2 (11727129_at) / Fold change /veh MAGEB2 (11727129_at) / RFU TMEM200A (11744735_a_at) / Fold change /veh TMEM200A (11744735_a_at) / RFU CCDC152 (11751479_a_at) / Fold change /veh CCDC152 (11751479_a_at) / RFU FAM211A (11726209_a_at) / Fold change /veh FAM211A (11726209_a_at) / RFU RGS16 (11746705_a_at) / Fold change /veh RGS16 (11746705_a_at) / RFU VCAN (11755009_s_at) / Fold change /veh VCAN (11755009_s_at) / RFU RHOB (11743442_s_at) / Fold change /veh RHOB (11743442_s_at) / RFU RGS16 (11720943_a_at) / Fold change /veh RGS16 (11720943_a_at) / RFU RGS16 (11720944_at) / Fold change /veh RGS16 (11720944_at) / RFU, VPS4B / Fold change vs veh, VPS4B / RFU, CREB1 / Fold change vs veh, CREB1 / RFU, DNAJC13 / Fold change vs veh, DNAJC13 / RFU, GNAQ / Fold change vs veh, GNAQ / RFU, CDK5R1 / Fold change vs veh, CDK5R1 / RFU, ZRANB3 / Fold change vs veh, ZRANB3 / RFU, CUL4A / Fold change vs veh, CUL4A / RFU, CCNY / Fold change vs veh, CCNY / RFU, UFL1 / Fold change vs veh, UFL1 / RFU, COG3 / Fold change vs veh, COG3 / RFU, DIAPH2 / Fold change vs veh, DIAPH2 / RFU, SKA2 / Fold change vs veh, SKA2 / RFU, AFF3 / Fold change vs veh, AFF3 / RFU, LMF1 / Fold change vs veh, LMF1 / RFU, IPO11 / Fold change vs veh, IPO11 / RFU, DFFB / Fold change vs veh, DFFB / RFU, FOXP1 / Fold change vs veh, FOXP1 / RFU, CARD8 / Fold change vs veh, CARD8 / RFU, STRN3 / Fold change vs veh, STRN3 / RFU, ADK / Fold change vs veh, ADK / RFU, RASSF2 / Fold change vs veh, RASSF2 / RFU, WIPF1 / Fold change vs veh, WIPF1 / RFU, LARP1B / Fold change vs veh, LARP1B / RFU, RASA1 / Fold change vs veh, RASA1 / RFU, RB1 / Fold change vs veh, RB1 / RFU, PPFIA1 / Fold change vs veh, PPFIA1 / RFU, MAT2A / Fold change vs veh, MAT2A / RFU, CCT5 / Fold change vs veh, CCT5 / RFU, WDR92 / Fold change vs veh, WDR92 / RFU, CUX1 / Fold change vs veh, CUX1 / RFU, TTC7A / Fold change vs veh, TTC7A / RFU, TMEM135 / Fold change vs veh, TMEM135 / RFU, DEPTOR / Fold change vs veh, DEPTOR / RFU, CPM / Fold change vs veh, CPM / RFU, DNAJB6 / Fold change vs veh, DNAJB6 / RFU, CACNA2D3 / Fold change vs veh, CACNA2D3 / RFU, DTX4 / Fold change vs veh, DTX4 / RFU, TFCP2 / Fold change vs veh, TFCP2 / RFU, GMCL1 /// GMCL1P1 / Fold change vs veh, GMCL1 /// GMCL1P1 / RFU, AEBP2 / Fold change vs veh, AEBP2 / RFU, SNHG1 /// SNORD22 /// SNORD25 /// SNORD26 /// SNORD27 /// SNORD28 /// SNORD29 /// SNORD31 / Fold change vs veh, SNHG1 /// SNORD22 /// SNORD25 /// SNORD26 /// SNORD27 /// SNORD28 /// SNORD29 /// SNORD31 / Fold change (Aza/veh), C12orf56 (ProbeSet 11735607_a_at) / Fold change (ACY-1035/veh), C12orf56 (ProbeSet 11735607_a_at) / Fold change (Aza/veh), FGFR1OP (ProbeSet 11751329_s_at) / Fold change (ACY-1035/veh), FGFR1OP (ProbeSet 11751329_s_at) / Fold change (Aza/veh), VPS36 (ProbeSet 11739960_a_at) / Fold change (ACY-1035/veh), VPS36 (ProbeSet 11739960_a_at) / RFU SYPL1 (11715823_x_at) / Fold change /veh SYPL1 (11715823_x_at) / RFU IGFBP7 (11715501_s_at) / Fold change /veh IGFBP7 (11715501_s_at) / RFU REEP3 (11722064_at) / Fold change /veh REEP3 (11722064_at) / RFU IGLL1 (11728026_x_at) / Fold change /veh IGLL1 (11728026_x_at): dose or concentration left out as unconfirmed
Settings: ProbeSet 11740781_a_at; LIST B

## Nc1ncn([C@@H]2O[C@H](CO)[C@@H](O)[C@H]2O)c(=O)n1 [azacitidine]
  RFU, ILF3: 260.31 RFU
